{
  "source": "patent US7037962B2",
  "about": "“Composition and process for enhancing bio-mass production in greenhouses” (Ciba Specialty Chemicals Corp., priority 2002, dated 2006)",
  "tested_on": "Carnation",
  "assay": "Growth of carnation in greenhouses covered with the film",
  "format": "in vivo",
  "conditions": "1% compound 100 in Film A versus Film B",
  "experimental": "A three layer LDPE/EVA industrial film is prepared by blow molding having the following structure: 200μ thickness, 50μ EVA 5%, 100μ EVA 14% and 50μ EVA 5%. […] Agricultural Tests Two cultivars, namely ‘Jack’ and ‘Samuela’, have been grown under two greenhouses one with film A and the other with film B. The cultivation started on the 18 Sep. 2001 and harvesting started on the 3, Oct. 2001. The cultivation conditions are the standard conditions used in the region.",
  "data": [
    {"compound": "CN(C)c1ccc(C=C2C(=O)NC(=O)NC2=O)cc1", "note": "[compound 100, condensation product of 4-dimethylaminobenzaldehyde and barbituric acid]", "values": [
      {"measurement": "effect on the production and quality of carnation", "result": "evident"}
    ]}
  ]
}
